Measured values: patent publication US10221426B2, “Constitutively active PYR/PYL receptor proteins for improving plant stress tolerance” (The Regents of the University of California, priority 2009, dated 2019)

What was measured:
PYL2-HAB1 = target: T1, PYL2-HAB1 (Arabidopsis thaliana, UniProt O80992); assay: Yeast two-hybrid BD-PYL2 / AD-HAB1 interaction, X-gal stain; type: cell-based; details: 10 μM
T1 construct: BD-PYR/PYL fusion proteins were constructed in the same manner as for BD-PYR1 above; expressed in transfected cells; host or cells: yeast (Y190, as for BD-PYR1)
T1 sequence (O80992 1-190): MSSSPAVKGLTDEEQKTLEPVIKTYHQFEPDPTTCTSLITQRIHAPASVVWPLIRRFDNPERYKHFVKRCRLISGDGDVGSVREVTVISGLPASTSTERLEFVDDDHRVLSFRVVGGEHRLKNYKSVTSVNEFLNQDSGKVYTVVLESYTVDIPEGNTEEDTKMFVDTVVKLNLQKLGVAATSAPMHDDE
T1 sequence (Q9CAJ0 23-511 partner): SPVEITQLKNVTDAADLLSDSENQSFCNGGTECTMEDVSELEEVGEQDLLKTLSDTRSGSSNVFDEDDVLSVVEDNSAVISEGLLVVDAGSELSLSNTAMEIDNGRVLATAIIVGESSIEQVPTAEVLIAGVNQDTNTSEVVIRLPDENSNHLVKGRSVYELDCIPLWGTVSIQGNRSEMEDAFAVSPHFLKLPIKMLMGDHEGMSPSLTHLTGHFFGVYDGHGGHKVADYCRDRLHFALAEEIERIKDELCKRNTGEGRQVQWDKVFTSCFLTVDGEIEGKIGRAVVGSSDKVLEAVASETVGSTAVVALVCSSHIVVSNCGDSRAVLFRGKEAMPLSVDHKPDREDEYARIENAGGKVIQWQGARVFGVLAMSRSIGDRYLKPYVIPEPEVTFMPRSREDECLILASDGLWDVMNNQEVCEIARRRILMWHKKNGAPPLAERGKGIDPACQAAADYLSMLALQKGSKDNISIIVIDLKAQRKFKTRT
Procedure: Given that PYR1 is necessary for pyrabactin action and is a predicted ligand-binding protein, we hypothesized that pyrabactin agonizes ABA signaling by inducing a protein-protein interaction between PYR1 and a downstream effector. To test this, ˜2 million prey cDNA clones were screened against a PYR1 Y2H bait construct on media containing 10 μM pyrabactin. To create the PYR1 Y2H bait construct, the Pyr1 open reading frame was PCR amplified from genomic DNA and cloned to pGem-T easy vector (Promega). After sequence confirmation, the Pyr1 ORF was then cloned in-frame between EcoRI and SalI sites of the pBD-GAL4 Cam vector (Stratagene) and transformed into yeast strain Y190. For the screen, an etiolated seedling cDNA library (J. Kim, K., Harter, A., Theologis, Proc Natl Acad Sci USA 94, 11786 (Oct. 28, 1997)) (ABRC stock CD4-22) was used. The cDNA library was first converted from phage to plasmid DNA, yielding 7.6×10^7 transformants. Plasmid DNA prepared from library was then used to transform Y190 as described in the GAL4 Two-Hybrid system manual (Stratagene). For each screen, 40 μg of prey plasmid was transformed into 1 ml of competent Y190 cell harboring bait construct and then grown on SD agar plates lacking His, Leu, and Trp, but containing 15 mM 3-AT and 10 μM pyrabactin. After 4 days incubation at 30° C., well-grown colonies were rescued and interactions validated using filter lift assay or chloroform-agarose overlay method and X-Gal staining. This identified two pyrabactin-dependent hits which sequencing determined encoded cDNAs for the PP2C HAB1, a close relative of the well-characterized ABA response factor ABI1 (A. Saez et al., The Plant Journal 37, 354 (2004); N. Leonhardt et al., THE PLANT CELL 16, 596 (2004)). Next, Y2H strains expressing an AD-HAB1 fusion protein and a BD-PYR1 fusion protein were grown on plates and tested for interactions in response to various compounds, all at 10 μM except for epi-brassinolide (50 nM) and dimethyl sulfoxide (DMSO) (carrier solvent, 1%). […] Thus, PYR1 interacts with HAB1 in a (+)-ABA dependent fashion. […]

[1] = target: T2, HAB1 in the presence of PYL4 (Arabidopsis thaliana, UniProt O80920); assay: PP2C phosphatase assay (pNPP), GST-HAB1 in the presence of PYL4; type: biochemical; details: recombinant PYL4 refolded from inclusion bodies
T2 construct: vector pHB3; made in house
T2 sequence (O80920 1-207): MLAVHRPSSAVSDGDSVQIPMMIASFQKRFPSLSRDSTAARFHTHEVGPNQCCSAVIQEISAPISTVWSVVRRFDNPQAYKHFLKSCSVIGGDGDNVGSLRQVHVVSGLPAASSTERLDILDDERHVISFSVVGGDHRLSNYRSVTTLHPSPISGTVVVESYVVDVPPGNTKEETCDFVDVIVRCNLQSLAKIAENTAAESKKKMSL
T2 sequence (Q9CAJ0 23-511 partner): T1 sequence (Q9CAJ0 23-511 partner)

Row | SMILES | PYL2-HAB1 interaction by X-gal stain (PYL2-HAB1) | inhibition of HAB1 phosphatase activity in the presence of PYL4 [1]
1 | CC1=CC(=O)CC(C)(C)C1(O)/C=C/C(C)=C\C(=O)O (single isomer, unassigned; (+)) [(+)-ABA] | respond | inhibits HAB1 phosphatase activity
2 | CC1=CC(=O)CC(C)(C)[C@@]1(O)/C=C/C(C)=C\C(=O)O [ABA, Abscisic acid] | interact with HAB1 in an ABA-stimulated manner | saturable inhibition
